This passage reports Protection results from ChEMBL document CHEMBL1127911, “Synthesis of sulphur heterocycles as hepatoprotectants : part I” (1994).

Assay type in all cases: functional
The test system of experiment [1] is Rattus norvegicus. Kind of experiment: Tested for hepatoprotective activity against thioacetamide-induced hepatic damage in rat at 6 mg/kg, expressed as % protection afforded in ALP levels.
For experiment [2], the system named is Rattus norvegicus. The experiment in a line: Tested for hepatoprotective activity against thioacetamide-induced hepatic damage in rat at 6 mg/kg, expressed as % protection afforded in ACP levels.
In experiment [3] the test system is Rattus norvegicus. Kind of experiment: % protection of glutamate pyruvate transaminase level, against thioacetamide-induced hepatic damage in rats, at 6 mg/Kg peroral dose.
Experiment [4] concerns Rattus norvegicus. The experiment in a line: Tested for hepatoprotective activity against thioacetamide-induced hepatic damage in rat at 6 mg/kg, expressed as % protection afforded in GIDH levels.
Experiment [5] has as its system Rattus norvegicus. Kind of experiment: % protection measured by glutamate oxaloacetate transaminase level, against thioacetamide-induced hepatic damage in rats, at 6 mg/Kg peroral dose.

For `CCN(CC)C(=S)SC(C(=O)c1ccc(Cl)cc1)=C1SCCS1`, the Protection is recorded as 0% in the experiment on Rattus norvegicus [1]; 27% in the experiment on Rattus norvegicus [2]; 0% in the experiment on Rattus norvegicus [3]; 5% with Rattus norvegicus [4]; 46% in the experiment on Rattus norvegicus [5].
On to `CCOC(=O)C(C#N)=C1SCCS1`, for which the Protection was 11% with Rattus norvegicus [1]; 35% with Rattus norvegicus [2]; 73% with Rattus norvegicus [3]; 46% in the experiment with Rattus norvegicus [4]; 74% in the experiment on Rattus norvegicus [5].
As for `N#CC(C(=O)c1ccccc1)=C1SCCS1`, the Protection with Rattus norvegicus [1] was 31%; in the experiment on Rattus norvegicus [2] it was 0%; in the experiment on Rattus norvegicus [3] it was 0%; in the experiment on Rattus norvegicus [4], 0%; with Rattus norvegicus [5], 0%.
For `N#Cc1c(-c2ccccc2)cc(S)sc1=N`, the Protection in the experiment on Rattus norvegicus [1] stood at 30%; in the experiment on Rattus norvegicus [2] it was 47%; with Rattus norvegicus [3], 35%; in the experiment on Rattus norvegicus [4] it was 47%; in the experiment on Rattus norvegicus [5], 41%.
As for `CC(C)OC(=O)C(C(=O)OC(C)C)=C1SCCS1` [ISOPROTHIOLANE], the Protection in the experiment on Rattus norvegicus [1] turned out to be 0%; in the experiment with Rattus norvegicus [2], 0%; in the experiment with Rattus norvegicus [3], 77%; in the experiment with Rattus norvegicus [4], 0%; in the experiment on Rattus norvegicus [5] it was 92%.
Turning to `N#Cc1c(SCCS)n[nH]c1N`, the Protection is recorded as 0% in the experiment on Rattus norvegicus [1]; 9% in the experiment with Rattus norvegicus [2]; 0% in the experiment on Rattus norvegicus [3]; 0% in the experiment with Rattus norvegicus [4]; 0% in the experiment with Rattus norvegicus [5].
With `O=C(C(C(=O)c1ccccc1)=C1SCCS1)c1ccccc1`, the Protection came to 34% in the experiment on Rattus norvegicus [1]; 8% in the experiment with Rattus norvegicus [2]; 0% with Rattus norvegicus [3]; 0% in the experiment on Rattus norvegicus [4]; 0% with Rattus norvegicus [5].
Regarding `CCOC(=O)C(C(=O)c1ccccc1)=C1SCCS1`, the Protection in the experiment with Rattus norvegicus [1] amounted to 0%; with Rattus norvegicus [2], 29%; in the experiment on Rattus norvegicus [3], 0%; in the experiment with Rattus norvegicus [4] it was 0%; with Rattus norvegicus [5] it was 0%.
Take `CCN(CC)C(=S)SC(C(=O)c1ccc(C)cc1)=C1SCCS1`: the Protection with Rattus norvegicus [1] was determined as 0%; in the experiment with Rattus norvegicus [2] it was 70%; with Rattus norvegicus [3], 0%; in the experiment on Rattus norvegicus [4], 93%; in the experiment with Rattus norvegicus [5] it was 56%.
As to `COC(=O)C(C(C)=O)=C1SCCCS1`, the Protection in the experiment with Rattus norvegicus [1] came out at 14%; in the experiment on Rattus norvegicus [2], 0%; with Rattus norvegicus [3], 0%; in the experiment with Rattus norvegicus [4], 68%; in the experiment on Rattus norvegicus [5], 66%.
Turning to `CCN(CC)C(=S)SC(C(=O)c1ccc(Br)cc1)=C1SCCCS1`, the Protection with Rattus norvegicus [1] is 0%; in the experiment with Rattus norvegicus [2] it was 20%; in the experiment with Rattus norvegicus [3], 0%; with Rattus norvegicus [4], 0%; in the experiment on Rattus norvegicus [5], 38%.
As to `CCOC(=O)C(C(=O)OCC)=C1SCCS1`, the Protection in the experiment with Rattus norvegicus [1] worked out at 0%; with Rattus norvegicus [2], 39%; in the experiment with Rattus norvegicus [3], 0%; with Rattus norvegicus [4] it was 2%; in the experiment with Rattus norvegicus [5] it was 0%.
Turning to `N#CC(C(=O)c1ccc(Cl)cc1)=C1SCCS1`, the Protection in the experiment with Rattus norvegicus [1], with Rattus norvegicus [2], with Rattus norvegicus [3], in the experiment with Rattus norvegicus [4] and in the experiment on Rattus norvegicus [5] was 0% each time.
SILYMARIN: the Protection in the experiment with Rattus norvegicus [1] was determined as 47%; in the experiment on Rattus norvegicus [2], 43.6%; with Rattus norvegicus [3] it was 47.2%; in the experiment with Rattus norvegicus [4] it was 39.8%; in the experiment with Rattus norvegicus [5], 50.1%.
For the compound `N#CC(C(=O)c1ccccc1)=C1SCCCS1`, the Protection in the experiment on Rattus norvegicus [1], in the experiment with Rattus norvegicus [2], in the experiment with Rattus norvegicus [3], in the experiment with Rattus norvegicus [4] and in the experiment with Rattus norvegicus [5] was 0% in each case.
With `COC(=O)C(C(C)=O)=C1SCCS1`, the Protection in the experiment with Rattus norvegicus [1] is listed as 0%; in the experiment on Rattus norvegicus [2] it was 9%; in the experiment with Rattus norvegicus [3], 0%; with Rattus norvegicus [4] it was 0%; in the experiment on Rattus norvegicus [5] it was 7%.
As to `CC(=O)C(C(C)=O)=C1SCCCS1`, the Protection in the experiment on Rattus norvegicus [1] turned out to be 67%; with Rattus norvegicus [2], 0%; in the experiment with Rattus norvegicus [3], 0%; in the experiment on Rattus norvegicus [4] it was 0%; with Rattus norvegicus [5], 27%.
For the compound `N#CC(C(=O)c1ccc(Cl)cc1)=C1SCCCS1`, the Protection with Rattus norvegicus [1] stood at 0%; with Rattus norvegicus [2], 0%; in the experiment on Rattus norvegicus [3], 0%; with Rattus norvegicus [4], 0%; with Rattus norvegicus [5], 63%.
On to `CCOC(=O)C(C(=O)c1ccccc1)=C1SCCCS1`, for which the Protection was found to be 0% in the experiment on Rattus norvegicus [1]; 7% in the experiment with Rattus norvegicus [2]; 45% in the experiment on Rattus norvegicus [3]; 23% in the experiment on Rattus norvegicus [4]; 35% in the experiment on Rattus norvegicus [5].
Consider `O=C(c1ccc(Cl)cc1)c1sc(=S)sc1SCc1ccccc1`, for which the Protection in the experiment on Rattus norvegicus [1] came out at 3%; in the experiment on Rattus norvegicus [2], 4%; with Rattus norvegicus [3], 39%; with Rattus norvegicus [4] it was 15%; in the experiment with Rattus norvegicus [5] it was 80%.
The like results for `CCOC(=O)C(C#N)=C1SCCCS1` were, in that order, 76%, 0%, 59%, 0% and 84%.
As for `CCN(CC)C(=S)SC(C(=O)c1ccc(Cl)cc1)=C1SCCCS1`, the Protection was 37% in the experiment on Rattus norvegicus [1]; 6% with Rattus norvegicus [2]; 0% with Rattus norvegicus [3]; 26% in the experiment on Rattus norvegicus [4]; 85% in the experiment with Rattus norvegicus [5].
In the case of `CC(=O)C(C(C)=O)=C1SCCS1`, the Protection in the experiment with Rattus norvegicus [1] stood at 0%; in the experiment with Rattus norvegicus [2], 0%; in the experiment on Rattus norvegicus [3], 40%; with Rattus norvegicus [4], 8%; with Rattus norvegicus [5] it was 67%.
